Experimental data from PMC12223813, “Antiproliferative and Trypanocidal Activity of Ivermectin Bioconjugates” (ACS Omega, 2025).
Where two headings read alike, the source gives them in different places.

Experiments:
[1] = test system: human promyelocytic leukemia HL-60 cells; assay: Cytotoxic activity, resazurin cell viability assay; type: cell-based; settings: 72 h total (24 h + 48 h with resazurin), mean ± SD of three independent experiments
Experimental: (§1) The trypanocidal and cytotoxic activities of the newly synthesized IVR bioconjugates and their conjugation partners were determined for bloodstream forms of T. brucei brucei and human myeloid HL-60 cells in vitro using the resazurin cell viability assay as previously described.
(§2) Test compounds were assayed at 10-fold dilutions ranging from 100 μM to 1 nM in the presence of 0.9% DMSO. Controls were grown in the culture medium containing only 0.9% DMSO. The assays were cultured in an incubator at 37 °C in a humidified atmosphere containing 5% CO2. After 24 h incubation, 20 μL of 0.5 mM resazurin (prepared in sterile PBS) was added, and the cultures were grown for another 48 h. Then, the proliferation of the cells was determined by measuring the absorbance at 570 nm (test wavelength) and 630 nm (reference wavelength) using a microplate reader.

[2] = test system: HaCaT, human immortalized keratinocyte cell line; assay: Cytotoxicity toward normal cells, MTT assay; type: cell-based; settings: 72 h, mean ± SD
Experimental: (§3) Additionally, to assess the selectivity of these compounds toward cancer cells, we included an immortalized keratinocyte cell line from adult human skin (HaCaT) in the antiproliferative activity tests. Doxorubicin served as the reference anticancer drug.
(§4) The culture media were enriched with 10% fetal bovine serum (FBS, Sigma-Aldrich, St. Louis, MO, USA), 20 mM HEPES (Biowest, Nuaillé, France), and antibiotics (100 U/mL penicillin and 100 μg/mL streptomycin) obtained from Gibco (Grand Island, NY, USA). The cells were maintained in a humidified incubator at 37 °C with 5% CO2 until they reached 80–90% confluence, after which they were used for further experiments.
(§5) To assess the cytotoxicity, the cells (0.5 × 10^4/well) were plated in 96-well plates and allowed to adhere for 24 h. The MTT (3-(4,5-dimethylthiazol-2-yl)-2,5-diphenyltetrazolium bromide) assay was used to evaluate the cytotoxic effects of IVR bioconjugates on all tested cell lines. After 24 h incubation, cells were exposed to varying concentrations (1 to 100 μM) of the test compounds for 72 h. Following the treatment, the medium was discarded, and a 0.5 mg mL^–1 MTT solution was added to each well and incubation was continued for another 4 h. Mitochondrial enzyme activity facilitated the formation of formazan crystals, which were subsequently dissolved in DMSO-isopropanol (1:1, v/v), producing a violet-colored solution. A 100 μL aliquot of this solution was transferred to the well, and absorbance was recorded at 570 nm using a MultiscanGo spectrophotometer (ThermoFisher Scientific, Carlsbad, CA, USA).
(§6) Cytotoxicity was quantified by comparing the absorbance of the treated cells to that of untreated controls using the formula: [A]/[B] × 100, where [A] represents the absorbance of the treated sample and [B] corresponds to the absorbance of the control sample. A decrease in MTT levels reflects a decrease in cell viability.

[3] = test system: bloodstream forms of T. b. brucei (427-221a clone); assay: microbe, parasite or virus in culture
Experimental: as §1, §2

[4] = in vitro; settings: human
Experimental: as §1, §2

[5] = test system: MDA-MB-231, human triple-negative breast cancer cell line; assay: Antiproliferative activity, MTT assay; type: cell-based; settings: for IC50: Homo sapiens, MDA-MB-231, 72 h, MTT, mean ± SD; for MDA-MB-231 SI: SI = IC50 HaCaT/IC50 MDA-MB-231
Experimental: as §3, §4, §5, §6

[6] = test system: PC3, human metastatic prostate cancer cell line; assay: Antiproliferative activity, MTT assay; type: cell-based; settings: for IC50: Homo sapiens, 72 h, MTT, mean ± SD; for PC3 SI: SI = IC50 HaCaT/IC50 PC3
Experimental: as §3, §4, §5, §6

[7] = test system: A549, human lung cancer cell line; assay: Antiproliferative activity, MTT assay; type: cell-based; settings: for IC50: Homo sapiens, A549, 72 h, MTT, mean ± SD; for A549 SI: SI = IC50 HaCaT/IC50 A549
Experimental: as §3, §4, §5, §6

[8] = test system: HCT-116, human primary colon cancer cell line; assay: Antiproliferative activity, MTT assay; type: cell-based; settings: for IC50: Homo sapiens, HCT-116, 72 h, MTT, mean ± SD; for HCT-116 SI: SI = IC50 HaCaT/IC50 HCT-116
Experimental: as §3, §4, §5, §6

**Q.** Which GI50 [1] does the source give for `CCC(C)C1OC2(CCC1C)CC1CC(CC=C(C)C(OC(=O)Cn3cc(COC(=O)CCC(=O)OC4OC5OC6(C)CCC7C(C)CCC(C4C)C57OO6)nn3)C(C)C=CC=C3COC4C(O)C(C)=CC(C(=O)O1)C34O)O2` (stereo not drawn) [compound 16, Ivermectin–Artesunate Conjugate] here?
**A.** 18 ± 6 µM

**Q.** What about the IC50 [2] of the same compound?
**A.** > 100 µM

**Q.** And the “selectivity GI50 ratio” value ([3]; GI50(HL-60)/GI50(T. brucei))?
**A.** 46.2

**Q.** And the “antitrypanosomal activity, times stronger than IVR” value ([3]; relative to IVR GI50)?
**A.** 7 times

**Q.** And the “antitrypanosomal activity, times stronger than artesunate” value ([3]; relative to artesunate GI50)?
**A.** 9 times

**Q.** And the selectivity ratio [4]?
**A.** > 256

**Q.** And the IC50 [5]?
**A.** 13 ± 4.1 µM

**Q.** What about the “MDA-MB-231 SI” value [5] of the same compound?
**A.** >7.7

**Q.** What about the IC50 [6] of the same compound?
**A.** 20.8 ± 7.2 µM

**Q.** What about the “PC3 SI” value [6] of the same compound?
**A.** >4.8

**Q.** What about the IC50 [7] of the same compound?
**A.** 3.8 ± 1.3 µM

**Q.** What about the “A549 SI” value [7] of the same compound?
**A.** >26.3

**Q.** And the IC50 [8]?
**A.** 4.5 ± 0.6 µM

**Q.** What about the “HCT-116 SI” value [8] of the same compound?
**A.** >22.2

**Q.** With `CC[C@H](C)[C@H]1O[C@]2(CC[C@@H]1C)C[C@@H]1C[C@@H](C/C=C(\C)[C@@H](O[C@H]3C[C@H](OC)[C@@H](O[C@H]4C[C@H](OC)[C@@H](O)[C@H](C)O4)[C@H](C)O3)[C@@H](C)/C=C/C=C3\CO[C@@H]4[C@H](O)C(C)=C[C@@H](C(=O)O1)[C@]34O)O2` [compound 1, Ivermectin] as the compound, how does the GI50 [1] read?
**A.** 30 ± 1.1 µM

**Q.** What about the IC50 [2] of the same compound?
**A.** 12.6 ± 4.3 µM

**Q.** What about the “selectivity GI50 ratio” value [3] of the same compound?
**A.** 10.3

**Q.** What about the IC50 [5] of the same compound?
**A.** 8.7 ± 3.2 µM

**Q.** And the “MDA-MB-231 SI” value [5]?
**A.** 1.4

**Q.** What about the IC50 [6] of the same compound?
**A.** 33.9 ± 6.3 µM

**Q.** And the “PC3 SI” value [6]?
**A.** 0.4

**Q.** And the IC50 [7]?
**A.** 7.2 ± 1.4 µM

**Q.** What about the “A549 SI” value [7] of the same compound?
**A.** 1.8

**Q.** And the IC50 [8]?
**A.** 9.9 ± 1.1 µM

**Q.** What about the “HCT-116 SI” value [8] of the same compound?
**A.** 1.3

**Q.** Which results are given for `CCC(C)C1OC2(CCC1C)CC1CC(CC=C(C)C(OC(=O)OCC3OC(n4cc(C)c(=O)[nH]c4=O)CC3N=[N+]=[N-])C(C)C=CC=C3COC4C(O)C(C)=CC(C(=O)O1)C34O)O2` (stereo not drawn) [compound 11, Ivermectin–Azidothymidine Conjugate]?
**A.** GI50 [1]: 11.1 ± 4.1 µM; IC50 [2]: 26.1 ± 3.3 µM; selectivity GI50 ratio ([3]; GI50(HL-60)/GI50(T. brucei)): 5.6; IC50 [5]: 12.5 ± 1.5 µM; MDA-MB-231 SI [5]: 2.1; IC50 [6]: 8.1 ± 3.2 µM; PC3 SI [6]: 3.2; IC50 [7]: 8.2 ± 1.9 µM; A549 SI [7]: 3.2; IC50 [8]: 7.7 ± 3.1 µM; HCT-116 SI [8]: 3.4
